The text below walks through data of patent publication US9260439B2, “Dihydropyrrolopyrimidine derivatives” (PFIZER INC., priority 2014, dated 2016).

Where a name gives a salt, the structure may show the parent alone. Some results are limits rather than exact numbers.

Sequence of truncated PI3Kα (p110α/iSH2 p85α) (P42336 whole entry, the tested form may be a part): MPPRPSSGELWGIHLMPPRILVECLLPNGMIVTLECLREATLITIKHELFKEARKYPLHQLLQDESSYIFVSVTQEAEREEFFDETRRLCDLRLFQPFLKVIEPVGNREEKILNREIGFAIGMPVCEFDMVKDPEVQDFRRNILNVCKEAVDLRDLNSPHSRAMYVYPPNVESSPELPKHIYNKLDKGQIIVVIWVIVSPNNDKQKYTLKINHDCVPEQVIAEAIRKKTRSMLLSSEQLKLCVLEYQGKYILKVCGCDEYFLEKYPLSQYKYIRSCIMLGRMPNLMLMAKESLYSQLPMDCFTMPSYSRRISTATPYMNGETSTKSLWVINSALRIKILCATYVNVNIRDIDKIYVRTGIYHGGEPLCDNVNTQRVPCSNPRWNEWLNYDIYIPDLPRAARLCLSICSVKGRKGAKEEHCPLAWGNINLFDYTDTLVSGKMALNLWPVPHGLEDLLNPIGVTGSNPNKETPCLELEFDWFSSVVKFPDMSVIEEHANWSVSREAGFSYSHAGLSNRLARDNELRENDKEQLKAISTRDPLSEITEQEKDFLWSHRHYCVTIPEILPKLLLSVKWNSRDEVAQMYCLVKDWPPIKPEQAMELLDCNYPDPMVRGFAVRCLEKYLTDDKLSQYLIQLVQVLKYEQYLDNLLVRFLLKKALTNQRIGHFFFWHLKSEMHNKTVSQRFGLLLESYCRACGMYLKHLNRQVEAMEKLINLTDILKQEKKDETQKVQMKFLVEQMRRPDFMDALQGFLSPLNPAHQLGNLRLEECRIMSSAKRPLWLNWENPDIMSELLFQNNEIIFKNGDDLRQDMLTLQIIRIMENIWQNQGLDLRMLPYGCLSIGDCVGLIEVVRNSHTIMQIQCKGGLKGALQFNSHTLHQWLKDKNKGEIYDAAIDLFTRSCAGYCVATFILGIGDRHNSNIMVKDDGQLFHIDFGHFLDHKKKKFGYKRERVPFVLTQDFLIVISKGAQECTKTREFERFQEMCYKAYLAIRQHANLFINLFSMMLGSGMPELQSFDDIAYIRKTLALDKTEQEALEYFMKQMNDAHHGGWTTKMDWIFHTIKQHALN

One test addresses truncated PI3Kα (p110α/iSH2 p85α) (Homo sapiens (Human), UniProt P42336). The test can be described thus: PI3KA_Act fluorescence polarization kinase assay (Ki). As to conditions: 1 mM ATP. In kind it is biochemical. The text has this: 2) p110α-iSH2 p85α Complex (Full Length p110α and p85α iSH2)(“PI3KA_Act”)
Genes encoding for full length p110α and p85α nSH-iSH2=niSH2 (p85a aminoacids 322-600) subunits of PI3Kα complex were subcloned from existing constructs into pFASTBAC Dual vector (Life Technologies, Carlsbad, Calif.) using standard cloning procedures. Gene encoding p110α subunit was subcloned into polyhedrine promoter while gene encoding p85α niSH2 domains was subcloned into p10 promoter. Additionally, Human Rhinovirus 3C Protease (“HRV 3C”) site was introduced between nSH2 and iSH2, replacing aminoacids 431-438 of p85α with […] HRV 3C recognition sequence, using standard QuickChange mutagenesis protocol (Agilent Technologies, CA). Recombinant baculovirus was generated using Bac-to-Bac protocol (Life Technologies, Carlsbad, Calif.). Large scale expression was conducted in Sf21 (Life Technologies, Carlsbad, Calif.) cells at a multiplicity of infection (“MOI”)=1 for 48 hours. Cells were lyzed in 50 mM Tris pH 8.0, 250 mM NaCl, 5% glycerol, 0.25 mM TCEP, and 20 mM imidazole. The p110α-niSH2 p85α complex was purified from clarified supernatant using Immobilized Metalo Affinity Chromatography (“IMAC”). The protein was eluted from the column using 50 mM Tris pH 8.0, 200 mM NaCl, 0.25 mM TCEP, and 200 mM imidazole. Following elution p110α-niSH2 p85α complex was dialyzed against 4 liters of 50 mM Tris pH 8.0, 200 mM NaCl, 0.25 mM TCEP, and 40 mM imidazole in the presence of PreScission Protease (1:70 molar ratio of Protease to Protein) and TEV protease (1:40 molar ratio protease to protein) for 16 hours at 4° C. The protein was further purified using reverse IMAC to remove cleaved histidine tag and contaminants captured during initial IMAC purification. The mixture of p110α-iSH2 p85α complex and cleaved nSH2 was recovered in reverse IMAC 40 mM imidazole flow through and 60 mM imidazole wash fractions. Those fractions were pulled together and loaded on Superdex 200 26/60 SEC column equilibrated in 25 mM Tris, pH 8.0, 100 mM NaCl, 2% glycerol, and 2 mM TCEP. Following SEC, chromatography peak fractions containing p110α-iSH2 p85α complex were pulled and concentrated to 4.3 mg/mL. Purity and integrity of the complex was confirmed using LCMS, analytical SEC and SDS-PAGE (sodium dodecyl sulfate polyacrylamide gel electrophoresis) analysis.
The biochemical assays of kinase activity of full-length PI3Kα (full-length p110α/p85a) or truncated PI3Kα (p110α/iSH2 p85a) were conducted using a fluorescence polarization format similar to the procedure of Yuan J., et al., (2011) “PF-04691502, a Potent and Selective Oral Inhibitor of PI3K and mTOR Kinases with Antitumor Activity”, Mol Cancer Ther. 10, 2189-2199. The enzymatic reactions were conducted in 50 μL volumes in 96-well plates. The reactions contained human recombinant PI3Kα (2 nM full-length p110α/p85α or 0.5 nM p110α/iSH2 p85) and 30 μM phosphatidylinositol 4,5-bisphosphate (“PIP2”) (Cayman Chemical Company, Ann Arbor, Mich.) and were sonicated for 1 minute prior to adding PI3Kα enzyme (PI3KA_Act or PI3KA_FL), DMSO or test compound (12-point 3-fold serial dilution, 3 μM top dose, 2° A) DMSO final concentration), 5 mM MgCl2, 50 mM HEPES pH 7.4, 150 mM NaCl, 1 mM DTT ((2S,3S)-1,4-bis(sulfanyl)butane-2,3-diol), and 0.05% 3-[(3-cholamidopropyl)dimethylammonio]-1-propanesulfonate (“CHAPS”). […] The reactions were incubated for 30 min at room temperature, stopped with EDTA pH 8 (10 mM final concentration). In a detection plate, 15 μL of detector/probe mixture, containing 480 nM GST-Grp1 PH domain protein (University of Dundee, Dundee, UK) and 12 nM carboxytetramethylrhodamine (“TAMRA”)-tagged fluorescent phosphatidylinositol (3,4,5)-triphosphate (“PIP3”) (Echelon Biosciences, Inc., Salt Lake City, Utah) in assay buffer, was mixed with 15 μL of kinase reaction mixture. The plate was shaken for 30 minutes and fluorescence polarization values were measured on an LJL Analyst HT plate reader (Molecular Devices, Sunnyvale, Calif.). […]
As for `C[C@]1(N2CCc3c(-c4cnc(N)nc4)nc(N4CCOCC4)nc32)CCN(C(=O)[C@](C)(N)C(F)(F)F)C1.Cl` [Example 312, (2S)-2-amino-1-{(3S)-3-[4-(2-aminopyrimidin-5-yl)-2-(morpholin-4-yl)-5,6-dihydro-7H-pyrrolo[2,3-d]pyrimidin-7-yl]-3-methylpyrrolidin-1-yl}-3,3,3-trifluoro-2-methylpropan-1-one hydrochloride], the “PI3KA_Act Ki” value worked out at 0.037 nM.
Consider `C[C@H]1COCCN1c1nc(-c2cnc(N)nc2)c2c(n1)N(C1(C)CCNCC1)CC2.Cl` [Example 516, 5-{2-[(3S)-3-methylmorpholin-4-yl]-7-(4-methylpiperidin-4-yl)-6,7-dihydro-5H-pyrrolo[2,3-d]pyrimidin-4-yl}pyrimidin-2-amine hydrochloride], for which the “PI3KA_Act Ki” value came to 0.346 nM.
`CC(C(N)=O)C(=O)N1CC[C@](C)(N2CCc3c(-c4cnc(N)nc4)nc(N4CCOCC4)nc32)C1` (stereo partly drawn) [Example 315, 3-{(3S)-3-[4-(2-aminopyrimidin-5-yl)-2-(morpholin-4-yl)-5,6-dihydro-7H-pyrrolo[2,3-d]pyrimidin-7-yl]-3-methylpyrrolidin-1-yl}-2-methyl-3-oxopropanamide]: the “PI3KA_Act Ki” value is under 0.018 nM.
Take `CC(C)S(=O)(=O)N1CC(N2CCc3c(-c4cnc(N)nc4)nc(N4CCOC[C@H]4C)nc32)C1` [Example 224]: the “PI3KA_Act Ki” value is recorded as 2.296 nM.
Turning to `CS(=O)(=O)N1C[C@@H]2C[C@]2(N2CCc3c(-c4cnc(N)nc4)nc(N4CCOCC4)nc32)C1` [Example 437, 5-{7-[(1R,5S)-3-(methylsulfonyl)-3-azabicyclo[3.1.0]hex-1-yl]-2-(morpholin-4-yl)-6,7-dihydro-5H-pyrrolo[2,3-d]pyrimidin-4-yl}pyrimidin-2-amine], the “PI3KA_Act Ki” value is 0.603 nM.
Still for that read-out and setting: then `C[C@@H](N)C(=O)N1CC[C@](C)(N2CCc3c(-c4cnc(N)nc4)nc(N4CCOC[C@@H]4C)nc32)C1.Cl` [Example 476, (2R)-2-amino-1-[(3S)-3-{4-(2-aminopyrimidin-5-yl)-2-[(3S)-3-methylmorpholin-4-yl]-5,6-dihydro-7H-pyrrolo[2,3-d]pyrimidin-7-yl}-3-methylpyrrolidin-1-yl]propan-1-one hydrochloride], with under 0.018 nM; and `CCC(=O)N1CC[C@](C)(N2CCc3c(-c4cnc(N)nc4)nc(N4CCOCC4)nc32)C1` [Example 260, 1-{(3S)-3-[4-(2-aminopyrimidin-5-yl)-2-(morpholin-4-yl)-5,6-dihydro-7H-pyrrolo[2,3-d]pyrimidin-7-yl]-3-methylpyrrolidin-1-yl}propan-1-one], with 0.030 nM; and `CNC(=O)CN1CC[C@](C)(N2CCc3c(-c4cnc(N)nc4)nc(N4CCOCC4)nc32)C1` [Example 401, 2-{(3S)-3-[4-(2-aminopyrimidin-5-yl)-2-(morpholin-4-yl)-5,6-dihydro-7H-pyrrolo[2,3-d]pyrimidin-7-yl]-3-methylpyrrolidin-1-yl}-N-methylacetamide], with 0.109 nM.
Still for that read-out and setting: under `C[C@]1(N2CCc3c(-c4cnc(N)nc4)nc(N4CCOCC4)nc32)CCN(C(=O)[C@@H]2CCC(=O)N2)C1` [Example 378, (5S)-5-({(3S)-3-[4-(2-aminopyrimidin-5-yl)-2-(morpholin-4-yl)-5,6-dihydro-7H-pyrrolo[2,3-d]pyrimidin-7-yl]-3-methylpyrrolidin-1-yl}carbonyl)pyrrolidin-2-one] stands 0.082 nM.
Consider `C[C@H]1COCCN1c1nc(-c2cnc(N)nc2)c2c(n1)N([C@@]1(C)CCN(C(=O)[C@@H](N)C3CC3)C1)CC2.Cl` [Example 481, (2S)-2-amino-1-[(3S)-3-{4-(2-aminopyrimidin-5-yl)-2-[(3S)-3-methylmorpholin-4-yl]-5,6-dihydro-7H-pyrrolo[2,3-d]pyrimidin-7-yl}-3-methylpyrrolidin-1-yl]-2-cyclopropylethanone hydrochloride], for which the “PI3KA_Act Ki” value is 0.149 nM.
`C[C@]1(N2CCc3c(-c4cnc(N)nc4)nc(N4CCOCC4)nc32)CCN(C2CCCNC2=O)C1` (single isomer, unassigned) [Example 429]: the “PI3KA_Act Ki” value is reported as 0.160 nM.
Consider `C[C@]1(N2CCc3c(-c4cnc(N)nc4)nc(N4CCOCC4)nc32)CCN(C(=O)C2(F)CNC2)C1.Cl` [Example 352, {(3S)-3-[4-(2-aminopyrimidin-5-yl)-2-(morpholin-4-yl)-5,6-dihydro-7H-pyrrolo[2,3-d]pyrimidin-7-yl]-3-methylpyrrolidin-1-yl}(3-fluoroazetidin-3-yl)methanone hydrochloride], for which the “PI3KA_Act Ki” value is given as under 0.018 nM.
In turn, `C[C@H]1COCCN1c1nc(-c2cnc(N)nc2)c2c(n1)N([C@H]1[C@H]3C[C@@H]1N(C(=O)OC(C)(C)C)C3)CC2` [Example 523, tert-butyl (1S,4S,5S)-5-{4-(2-aminopyrimidin-5-yl)-2-[(3S)-3-methylmorpholin-4-yl]-5,6-dihydro-7H-pyrrolo[2,3-d]pyrimidin-7-yl}-2-azabicyclo[2.1.1]hexane-2-carboxylate] returned a Ki of 5.21 nM.
In the case of `C[C@]1(N2CCc3c(-c4cnc(N)nc4)nc(N4CCOCC4)nc32)CCN(C2CCNC2=O)C1` (single isomer, unassigned) [Example 7], the “PI3KA_Act Ki” value turned out to be 0.091 nM.
Regarding `C[C@]1(N2CCc3c(-c4cnc(N)nc4)nc(N4CCOCC4)nc32)CCN(C(=O)[C@@]2(F)CCNC2)C1.Cl` [Example 384], the “PI3KA_Act Ki” value is listed as under 0.018 nM.
For `CN1CC[C@@](C)(N2CCc3c(-c4cnc(N)nc4)nc(N4CCOCC4)nc32)C1` [Example 419, 5-{7-[(3R)-1,3-dimethylpyrrolidin-3-yl]-2-(morpholin-4-yl)-6,7-dihydro-5H-pyrrolo[2,3-d]pyrimidin-4-yl}pyrimidin-2-amine], the “PI3KA_Act Ki” value turned out to be 1.990 nM.
On to `CCC(=O)NCC(=O)N1CC(N2CCc3c(-c4cnc(N)nc4)nc(N4CCOC[C@@H]4C)nc32)C1` [Example 457, N-[2-(3-{4-(2-aminopyrimidin-5-yl)-2-[(3S)-3-methylmorpholin-4-yl]-5,6-dihydro-7H-pyrrolo[2,3-d]pyrimidin-7-yl}azetidin-1-yl)-2-oxoethyl]propanamide], for which the “PI3KA_Act Ki” value was found to be 0.691 nM.
On the same count and under the same terms, under `C[C@H](O)COC(=O)N1CC(N2CCc3c(-c4cnc(N)nc4)nc(N4CCOC[C@@H]4C)nc32)C1` [Example 182] stands 0.357 nM.
Still for that read-out and setting: under `CCS(=O)(=O)N1CC(C)(N2CCc3c(-c4cnc(N)nc4)nc(N4CCOC[C@@H]4C)nc32)C1` [Example 203] stands 0.032 nM.
As for `CNC(=O)N1CC[C@@](C)(N2CCc3c(-c4cnc(N)nc4)nc(N4CCOC[C@@H]4C)nc32)C1` [Example 505, (3R)-3-{4-(2-aminopyrimidin-5-yl)-2-[(3S)-3-methylmorpholin-4-yl]-5,6-dihydro-7H-pyrrolo[2,3-d]pyrimidin-7-yl}-N,3-dimethylpyrrolidine-1-carboxamide], the “PI3KA_Act Ki” value stood at 0.139 nM.

The same test, now with this note: 1 mM ATP, hydrochloride.
As for `CC1(C(=O)N2CC[C@](C)(N3CCc4c(-c5cnc(N)nc5)nc(N5CCOCC5)nc43)C2)CCCO1` (single isomer, unassigned) [Example 375, hydrochloride], the “PI3KA_Act Ki” value was 0.043 nM.

The term Ki denotes a dissociation constant, usually derived from enzyme kinetics or from competition with a known ligand. A lower Ki goes with higher affinity.
